# Assay results reported in PubChem BioAssay (NCI).
# “And” between values parts separate entries of the source, which are not always exact repeats. Equal entries are not always repeated.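 Values below derive from 48-hour exposures of cells grown in 96-well plates, with endpoints linearly interpolated between the two concentrations bracketing the appropriate inhibition level. GI50 marks 50% less growth. TGI: concentration producing complete growth inhibition.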
# Tests used:
# Experiment in all cases: NCI tumour cell line growth inhibition, 48 h
# [1] = test system: DLD-1 colon
# [2] = test system: DMS 114 small cell lung
# [3] = test system: KM20L2 colon
# [4] = test system: LXFL 529 NSCLC
# [5] = test system: RXF-631 renal
# [6] = test system: SNB-78 CNS
# [7] = test system: XF 498 CNS
# [8] = test system: HOP-18 NSCLC
# [9] = test system: MDA-N
Compound,TGI [1] [µM],TGI [2],TGI [3],TGI [4] [µM],TGI [5] [µM],TGI [6] [µM],TGI [7] [µM],TGI [8] [µM],TGI [9] [µM],also measured
CC(C)(C)OC(=O)NC1CCC[C@H]1O (stereo not given in full),> 100,> 100 µM,> 100 µM,> 100,> 100,> 100,> 100,–,–,–
Cc1ccccc1NC(=O)C1C(=O)N(c2ccccc2C)C(=O)/C1=N\N (stereo not given),> 100,> 100 µM,> 100 µM,> 100,> 100,> 100,–,> 100,–,–
O=C(/C=C/c1ccccc1O)c1cccnc1,> 100,–,> 100 µM,> 100,> 100,> 100,> 100,> 100,–,–
Nc1ccc2c(c1)CC1c3ccccc3C(C2)c2ccccc21,> 100,> 100 µM,> 100 µM,> 100,–,> 100,–,> 100,–,–
CN(C)CCNC(=O)Cn1ccc(=O)c2ccc([N+](=O)[O-])cc21,–,–,–,–,–,–,–,–,> 100,–
COc1cc2ccnc(-c3c4ccccc4c(N)c4c(OC)c(OC)ccc34)c2cc1OC,16.6,4.71 µM,–,15.7,–,18.3,6.75,–,–,–
O=C(O)c1ccc(NCc2nc3cc4ccccc4cc3[nH]2)cc1,–,–,–,–,–,–,–,–,> 100,–
O=C(O)CCCCCO,> 100,> 100 µM,> 100 µM,> 100,–,> 100,> 100,> 100,–,–
O=C(O)CCCSc1nc2ccccc2s1,–,–,–,–,–,–,–,–,> 100,–
CC1=C(C(=O)CC(=O)C(=O)Nc2ccccc2)Sc2ccccc2N1,> 100,> 100 µM,> 100 µM,> 100,> 100,> 100,> 100,> 100,–,–
O=C1OC(C2=CC(=O)c3ccccc3C2=O)C(Cl)=C1Cl (stereo not given),–,–,–,–,–,–,–,–,> 100,–
N#CCN1CCOCCOCCN(CC#N)CCOCCOCC1,> 100,> 100 µM,> 100 µM,> 100,> 100,> 100,–,> 100,–,–
CCOC(=O)N1N=NC2C3OC(C[C@@]3(C#N)OC(C)=O)[C@H]21 (stereo not given in full),> 100,–,> 100 µM,> 100,> 100,> 100,> 100,> 100,–,–
O=C1c2ccccc2-c2n[nH]c3cccc1c23,–,–,–,–,–,–,–,–,> 100,–
S=C=NCc1ccccc1,–,–,–,–,–,–,–,–,12.4,–
CC(=O)C1C(=O)C(=O)N(c2ccccc2N2C(=O)C(=O)C(C(C)=O)C2=O)C1=O (stereo not given),> 100,> 100 µM,> 100 µM,> 100,> 100,> 100,–,> 100,–,–
COc1cc(/C=C/c2ccc(OC(C)=O)cc2)cc(OC)c1OC,> 100,94.2 µM,> 100 µM,> 100,> 100,> 100,–,> 100,–,–
Cc1ccc(S(=O)(=O)SCc2ccccc2CSS(=O)(=O)c2ccc(C)cc2)cc1,30,> 100 µM,> 100 µM,32.6,> 100,> 100,47.4,> 100,–,–
COc1cc2c(c(OC)c1OC)-c1ccc(SC)c(=O)cc1[C@@H](NCc1cccc(C#N)c1)CC2,> 75,0.0347 µM and < 0.0075 µM,0.0302 µM and < 0.0075 µM,> 75,21.6,–,< 0.0075,–,–,GI50 [1]: < 0.0075 µM; GI50 [2]: < 0.0075 µM; GI50 [3]: < 0.0075 µM; GI50 [4]: < 0.0075 µM; GI50 [7]: < 0.0075 µM
CCC[CH2][Ge]([CH2]CCC)([CH2]CCC)[O]C(=O)C(O)c1ccccc1 (stereo not given),21.9,7.19 µM,22 µM,21.4,31.9,38.8,4.92,51,–,GI50 [1]: 1.99 µM; GI50 [2]: 0.284 µM; GI50 [8]: 18.5 µM; GI50 [3]: 2.18 µM; GI50 [4]: 1.29 µM; GI50 [5]: 5.7 µM; GI50 [6]: 3.04 µM
CC(=O)Nc1ccccc1-c1cnc2ccccc2n1,> 100,> 100 µM,> 100 µM,> 100,–,> 100,> 100,> 100,–,–
NC(CSc1nc2ccccn2c1[N+](=O)[O-])C(=O)O (stereo not given),–,–,–,–,–,–,–,–,> 100,–
CC(=O)OC1C/C(C)=C/CCC(C)/C=C/C2(C)CCC(C(C)(C)O)C12 (stereo not given),> 100,> 100 µM,> 100 µM,> 100,–,> 100,> 100,> 100,–,–
